Legend:
[1] = test system: RSV (Long strain); test: RSV plaque assay with Hep-2 cell monolayers; assay type: cell-based; settings: for EC50: human respiratory syncytial virus, 144 h, Hep-2 cell monolayers, RSV Long strain, 6 days of incubation, 0.4-50 μM in triplicate, read-out: Effective Conc. (EC50) RSV Plaque Count
Description: The ability of the active compounds to inhibit the growth of RSV was determined using a standard plaque assay with Hep-2 cell monolayers. The cell monolayers were infected with RSV (Long strain obtained from the American Tissue Culture Catalog, Cat# VR-26). After one hour of virus attachment, the cells were overlaid with medium containing methyl cellulose with or without serial concentrations of compound (0.4-50 μM). Each concentration was tested in triplicate. After 6 days of incubation, the overlay medium was aspirated and the cells fixed with absolute ethanol and stained with crystal violet to visualize RSV plaques and cell cytotoxicity using a 4× dissecting microscope. To determine the percent inhibition of RSV plaque formation, the mean number of RSV plaques in the presence of compound was divided by the number of RSV plaques in the control without added compounds. The quotient was subtracted from 1 and then multiplied by 100% to establish the % inhibition.

[2] = Toxicity test, 3H-thymidine incorporation (total DNA synthesis, cell growth); assay type: cell-based; settings: cells in growth phase (cell line not given); 48 hours treatment, 6 hours 3H-thymidine pulse; highest concentration evaluated 100 μM; read-out: Toxic Conc. (TC50) Cell Growth
Description: Cells in growth phase were treated with serial concentrations of compound for 48 hours and pulse labeled with 3H-thymidine for 6 hours. The cells were then harvested to measure total DNA synthesis in the presence or absence of the compound (Kucera et al., Antiviral Chemistry and Chemotherapy, 9: i57-i65 (1998)).
TC50 determinations were calculated by the method of Chou et al. Elsvier: Amsterdam, 1985, as described in Piantadosi C. et al., Journal of Medicinal Chemistry, 34: 1408-1414 (1991). The TC50 for KPC-15 and KPC-11 were unable to be determined since at the highest concentration evaluated (100 μM), 50% toxicity was not observed. Thus, KPC-15 and KPC-11, lacked significant toxicity in vitro with the TC50>100 μM.

EC50 [1] [µM]	Structure (SMILES)	SI (Selectivity Index: TC50 Cell Growth divided by EC50 Plaque Inhibition) [1]	in vitro activity against RSV (in words) [1]	CC50 at 48 h [2] [µM]
3.5	CCCCCCCCCC(=O)NCC(COP(=O)([O-])OCC[N+](C)(C)C)OCC (centres unmarked) [KPC-11, decylamido-2-ethoxypropylphosphocholine]	>28	potent in vitro activity against RSV	> 100
2.4	CCCCCCCCCCCC(=O)NCC(COP(=O)([O-])OCC[N+](C)(C)C)OCC (centres unmarked) [KPC-15, 3-dodecylamido-2-ethoxypropylphosphocholine]	>42	potent in vitro activity against RSV	> 100

Reference: patent publication US20050187191A1, “Methods and compositions for the treatment of respiratory syncytial virus” (priority 2004, published 2005)
